The IC50 is the point on the concentration scale where inhibition reaches its midpoint. Low values mean higher potency, high ones lower potency.

This note sets out measurements from patent US8748458B2, “Scriptaid isosteres and their use in therapy” (Karus Therapeutics Limited, priority 2009, dated 2014).

In one assay the test system is MCF7 Breast Tumour Cell. Put plainly: MCF7 Breast Tumour Cell Proliferation Inhibition. It is filed as cell-based. The settings on record: Homo sapiens; MCF7 cells.
Assay [1] relates to Total HDAC (HeLa Nuclear Extracts). Nature of the assay: Total HDAC inhibition (HeLa nuclear extracts). In kind it is biochemical.
In the next assay the target is HDAC6 (Homo sapiens (Human), UniProt Q9UBN7). Nature of the assay: HDAC6 inhibition. It is filed as biochemical.
The next assay addresses HDAC1 (Homo sapiens (Human), UniProt Q13547). Nature of the assay: HDAC1 inhibition. It is filed as biochemical.
Another assay deals with HDAC2 (Homo sapiens (Human), UniProt Q92769). Put plainly: HDAC2 inhibition. It is filed as biochemical.
For the next assay, the target named is HDAC9 (Homo sapiens (Human), UniProt Q9UKV0). Nature of the assay: HDAC9 inhibition. It is filed as biochemical.
A further assay has as its system TNFα. Nature of the assay: TNFα inhibition (LPS-stimulated human PBMCs). In kind it is cell-based. The settings on record: PBMC.
A further assay addresses HDAC3 (Homo sapiens (Human), UniProt O15379). Put plainly: HDAC3 inhibition. In kind it is biochemical.
The next assay concerns the target HDAC4 (Homo sapiens (Human), UniProt P56524). Put plainly: HDAC4 inhibition. It is filed as biochemical.
The target of another assay is HDAC10 (Homo sapiens (Human), UniProt Q969S8). Put plainly: HDAC10 inhibition. In kind it is biochemical.
The target in another assay is HDAC5 (Homo sapiens (Human), UniProt Q9UQL6). Put plainly: HDAC5 inhibition. It is filed as biochemical.
The target in the next assay is HDAC11 (Homo sapiens (Human), UniProt Q96DB2). Put plainly: HDAC11 inhibition. In kind it is biochemical.
A further assay deals with HDAC8 (Homo sapiens (Human), UniProt Q9BY41). Nature of the assay: HDAC8 inhibition. In kind it is biochemical.

Sequence of HDAC2 (Q92769 whole entry, species assumed): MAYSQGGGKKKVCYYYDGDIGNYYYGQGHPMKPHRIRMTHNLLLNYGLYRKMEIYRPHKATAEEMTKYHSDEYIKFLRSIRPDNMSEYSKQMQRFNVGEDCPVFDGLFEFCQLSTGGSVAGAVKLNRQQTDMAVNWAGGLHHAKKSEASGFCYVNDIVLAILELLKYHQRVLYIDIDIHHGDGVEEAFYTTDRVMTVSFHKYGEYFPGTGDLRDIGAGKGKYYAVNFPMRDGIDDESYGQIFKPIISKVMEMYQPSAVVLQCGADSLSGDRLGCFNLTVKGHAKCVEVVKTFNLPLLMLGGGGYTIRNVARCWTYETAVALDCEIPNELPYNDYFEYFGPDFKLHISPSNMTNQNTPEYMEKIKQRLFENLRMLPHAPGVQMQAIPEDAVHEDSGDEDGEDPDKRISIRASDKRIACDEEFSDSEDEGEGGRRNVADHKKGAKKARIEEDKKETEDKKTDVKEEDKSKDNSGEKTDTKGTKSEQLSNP
Sequence of HDAC6 (Q9UBN7 whole entry, species assumed): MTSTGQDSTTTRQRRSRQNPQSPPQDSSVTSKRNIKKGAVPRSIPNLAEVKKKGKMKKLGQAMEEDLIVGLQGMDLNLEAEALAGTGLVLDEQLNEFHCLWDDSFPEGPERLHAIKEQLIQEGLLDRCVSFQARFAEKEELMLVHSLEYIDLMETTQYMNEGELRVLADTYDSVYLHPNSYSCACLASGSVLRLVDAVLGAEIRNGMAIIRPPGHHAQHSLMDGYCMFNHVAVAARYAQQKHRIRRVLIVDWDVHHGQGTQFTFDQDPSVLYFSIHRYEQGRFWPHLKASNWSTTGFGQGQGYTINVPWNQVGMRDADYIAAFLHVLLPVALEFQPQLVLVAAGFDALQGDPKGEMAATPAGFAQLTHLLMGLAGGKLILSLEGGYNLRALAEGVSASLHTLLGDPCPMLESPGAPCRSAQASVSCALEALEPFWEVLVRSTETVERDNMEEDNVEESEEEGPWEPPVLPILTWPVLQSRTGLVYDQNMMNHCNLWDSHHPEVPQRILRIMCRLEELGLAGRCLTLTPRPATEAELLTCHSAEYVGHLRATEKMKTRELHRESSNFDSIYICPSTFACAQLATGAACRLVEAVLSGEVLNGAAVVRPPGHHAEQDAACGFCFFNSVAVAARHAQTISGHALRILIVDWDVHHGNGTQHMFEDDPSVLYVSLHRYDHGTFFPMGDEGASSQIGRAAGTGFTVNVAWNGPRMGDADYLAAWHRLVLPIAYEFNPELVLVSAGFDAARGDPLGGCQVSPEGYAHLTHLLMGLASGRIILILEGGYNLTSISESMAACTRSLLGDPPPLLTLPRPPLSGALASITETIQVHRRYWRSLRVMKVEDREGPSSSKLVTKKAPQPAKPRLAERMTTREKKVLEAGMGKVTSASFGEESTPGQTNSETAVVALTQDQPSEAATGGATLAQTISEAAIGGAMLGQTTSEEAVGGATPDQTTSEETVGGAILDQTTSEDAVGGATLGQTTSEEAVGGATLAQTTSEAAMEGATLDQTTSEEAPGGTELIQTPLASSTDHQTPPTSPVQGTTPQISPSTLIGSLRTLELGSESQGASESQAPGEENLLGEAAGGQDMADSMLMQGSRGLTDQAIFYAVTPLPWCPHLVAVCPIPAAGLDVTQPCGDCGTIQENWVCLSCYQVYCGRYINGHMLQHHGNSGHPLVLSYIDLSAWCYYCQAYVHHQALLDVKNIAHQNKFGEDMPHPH
Sequence of HDAC1 (Q13547 whole entry, species assumed): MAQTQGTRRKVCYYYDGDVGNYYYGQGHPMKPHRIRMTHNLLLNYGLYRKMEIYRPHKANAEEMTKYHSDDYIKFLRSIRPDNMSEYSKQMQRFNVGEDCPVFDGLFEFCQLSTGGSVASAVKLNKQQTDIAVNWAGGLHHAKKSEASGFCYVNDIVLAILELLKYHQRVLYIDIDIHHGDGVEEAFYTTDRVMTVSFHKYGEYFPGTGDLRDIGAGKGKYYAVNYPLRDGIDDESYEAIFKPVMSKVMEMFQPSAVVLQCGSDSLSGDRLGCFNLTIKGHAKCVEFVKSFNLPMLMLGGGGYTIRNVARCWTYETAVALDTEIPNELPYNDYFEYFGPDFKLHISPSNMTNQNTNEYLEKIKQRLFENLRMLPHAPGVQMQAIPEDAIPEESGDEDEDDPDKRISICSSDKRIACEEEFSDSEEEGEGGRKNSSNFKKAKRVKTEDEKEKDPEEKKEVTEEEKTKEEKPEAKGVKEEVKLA
Sequence of HDAC9 (Q9UKV0 whole entry, species assumed): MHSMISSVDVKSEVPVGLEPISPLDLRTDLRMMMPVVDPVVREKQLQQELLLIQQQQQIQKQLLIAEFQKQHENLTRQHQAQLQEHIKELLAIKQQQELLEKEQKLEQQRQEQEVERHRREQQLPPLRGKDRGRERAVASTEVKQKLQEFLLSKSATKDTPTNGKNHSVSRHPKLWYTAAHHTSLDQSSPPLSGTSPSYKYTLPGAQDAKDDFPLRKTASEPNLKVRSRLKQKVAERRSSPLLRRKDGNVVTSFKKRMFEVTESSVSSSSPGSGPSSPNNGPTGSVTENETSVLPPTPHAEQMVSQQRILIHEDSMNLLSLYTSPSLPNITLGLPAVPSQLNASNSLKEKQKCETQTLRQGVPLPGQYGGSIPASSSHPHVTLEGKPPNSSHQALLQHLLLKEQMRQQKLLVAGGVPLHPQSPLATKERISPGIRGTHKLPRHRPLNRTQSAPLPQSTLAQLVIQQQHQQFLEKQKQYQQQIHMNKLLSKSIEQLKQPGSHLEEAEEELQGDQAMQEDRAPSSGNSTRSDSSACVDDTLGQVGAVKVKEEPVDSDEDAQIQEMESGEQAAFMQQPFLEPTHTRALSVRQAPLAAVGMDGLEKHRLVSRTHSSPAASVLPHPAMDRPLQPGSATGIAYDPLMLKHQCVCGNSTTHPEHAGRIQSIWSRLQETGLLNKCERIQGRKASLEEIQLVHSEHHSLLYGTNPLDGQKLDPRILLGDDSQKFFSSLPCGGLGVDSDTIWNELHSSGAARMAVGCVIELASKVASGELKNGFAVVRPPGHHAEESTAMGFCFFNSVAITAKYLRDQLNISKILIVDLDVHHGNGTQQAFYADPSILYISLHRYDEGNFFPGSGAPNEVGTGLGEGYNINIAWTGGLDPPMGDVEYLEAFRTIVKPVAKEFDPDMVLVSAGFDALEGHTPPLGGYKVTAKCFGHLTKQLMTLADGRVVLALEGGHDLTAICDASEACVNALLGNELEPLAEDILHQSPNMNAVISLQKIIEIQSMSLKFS
Sequence of HDAC4 (P56524 whole entry, species assumed): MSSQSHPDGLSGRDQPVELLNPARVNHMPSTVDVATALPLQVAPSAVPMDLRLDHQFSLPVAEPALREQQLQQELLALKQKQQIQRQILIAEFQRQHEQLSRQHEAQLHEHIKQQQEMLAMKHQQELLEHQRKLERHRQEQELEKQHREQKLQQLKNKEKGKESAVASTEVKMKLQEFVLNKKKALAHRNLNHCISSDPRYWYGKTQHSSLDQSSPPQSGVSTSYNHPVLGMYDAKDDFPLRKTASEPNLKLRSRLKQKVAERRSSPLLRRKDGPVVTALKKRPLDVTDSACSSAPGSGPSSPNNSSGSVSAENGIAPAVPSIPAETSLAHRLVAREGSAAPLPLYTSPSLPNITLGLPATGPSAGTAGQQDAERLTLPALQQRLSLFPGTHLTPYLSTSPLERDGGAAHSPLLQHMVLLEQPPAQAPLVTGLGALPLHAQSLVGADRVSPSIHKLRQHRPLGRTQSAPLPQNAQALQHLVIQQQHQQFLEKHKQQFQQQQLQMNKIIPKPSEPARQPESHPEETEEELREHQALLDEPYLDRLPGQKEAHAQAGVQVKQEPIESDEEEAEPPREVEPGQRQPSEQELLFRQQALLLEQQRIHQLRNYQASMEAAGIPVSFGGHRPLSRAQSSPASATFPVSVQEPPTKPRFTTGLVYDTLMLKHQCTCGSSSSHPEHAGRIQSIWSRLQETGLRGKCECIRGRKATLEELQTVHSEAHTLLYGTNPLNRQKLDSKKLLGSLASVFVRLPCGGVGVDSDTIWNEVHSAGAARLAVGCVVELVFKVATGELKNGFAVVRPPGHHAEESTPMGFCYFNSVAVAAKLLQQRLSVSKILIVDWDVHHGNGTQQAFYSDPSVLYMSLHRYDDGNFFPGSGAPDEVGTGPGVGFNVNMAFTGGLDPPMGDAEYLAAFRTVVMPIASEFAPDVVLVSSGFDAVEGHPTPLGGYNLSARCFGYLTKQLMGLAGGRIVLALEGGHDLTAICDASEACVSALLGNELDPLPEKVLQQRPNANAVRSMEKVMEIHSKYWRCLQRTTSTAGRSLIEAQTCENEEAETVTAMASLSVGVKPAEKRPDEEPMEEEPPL
Sequence of HDAC3 (O15379 whole entry, species assumed): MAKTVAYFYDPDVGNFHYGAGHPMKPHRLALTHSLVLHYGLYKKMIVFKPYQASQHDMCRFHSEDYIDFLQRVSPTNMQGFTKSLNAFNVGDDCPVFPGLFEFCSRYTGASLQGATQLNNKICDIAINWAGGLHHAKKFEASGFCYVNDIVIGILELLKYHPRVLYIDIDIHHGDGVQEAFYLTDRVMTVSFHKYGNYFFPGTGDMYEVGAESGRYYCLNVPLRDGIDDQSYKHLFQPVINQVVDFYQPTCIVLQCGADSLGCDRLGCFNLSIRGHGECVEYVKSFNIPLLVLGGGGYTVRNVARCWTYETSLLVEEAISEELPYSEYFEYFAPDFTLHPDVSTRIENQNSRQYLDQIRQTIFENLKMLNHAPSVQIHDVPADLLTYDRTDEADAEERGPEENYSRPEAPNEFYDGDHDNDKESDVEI
Sequence of HDAC3 (Q9Y618 395-489 partner, species assumed): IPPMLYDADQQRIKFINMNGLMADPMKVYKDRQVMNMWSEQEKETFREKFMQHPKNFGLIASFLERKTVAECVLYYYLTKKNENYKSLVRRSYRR

Consider `O=C(CCCCCCN(c1ccccn1)c1ccc(-c2ccc(F)cc2)cn1)NO` [Example 13, 7-((5-(4-Fluorophenyl)pyridin-2-yl)(pyridin-2-yl)amino)-N-hydroxyheptanamide], for which the IC50 in the assay on MCF7 Breast Tumour Cell was found to be 0.357 µM; in [1] it was 0.521 µM.
Consider `Cc1cccc(-c2ccnc(N(CCCCCCC(=O)NO)c3ccccn3)c2)c1` [Example 27, 7-[Pyridin-2-yl-(4-m-tolyl-pyridin-2-yl)-amino]-heptanoic acid hydroxyamide], for which the figures for the IC50 (in the assay on MCF7 Breast Tumour Cell; in assay [1]) were 0.081 µM and 1.68 µM, respectively.
In the same order, the values of `Cc1ccnc(N(CCCCCCC(=O)NO)c2ccccn2)c1` [Example 7, N-Hydroxy-7-((4-methylpyridin-2-yl)(pyridin-2-yl)amino)heptanamide] are 0.448 µM and 0.778 µM.
Regarding `O=C(CCCCCCN(c1ccccn1)c1ccc(-c2ccccc2)cn1)NO` [Example 12, N-Hydroxy-7-((5-phenylpyridin-2-yl)(pyridin-2-yl)amino)heptanamide], the IC50 with MCF7 Breast Tumour Cell was 0.081 µM; in assay [1], 0.31 µM.
Turning to `O=C(CCCCCCN(c1ccccn1)c1ccc(OCc2ccccc2)cn1)NO` [Example 10, 7-((5-(Benzyloxy)pyridin-2-yl)(pyridin-2-yl)amino)-N-hydroxyheptanamide], the 50% inhibitory concentration (IC50) amounted to 0.057 µM at HDAC6, 0.285 µM in the assay on MCF7 Breast Tumour Cell, 1.07 µM in assay [1] and 0.182 µM at HDAC1.
With `O=C(CCCCCC=C(c1ccccn1)c1ccccn1)NO` [Example 5, N-Hydroxy-8,8-di(pyridin-2-yl)oct-7-enamide], the IC50 is 0.022 µM on HDAC6, 0.415 µM in assay [1] and 0.642 µM at HDAC1.
As for `COc1ccnc(N(CCCCCCC(=O)NO)c2ccccn2)c1` [Example 16, 7-[(4-Methoxy-pyridin-2-yl)-pyridin-2-yl-amino]-heptanoic acid hydroxyamide], the values for the half-inhibitory concentration (IC50) (in the assay with MCF7 Breast Tumour Cell; in [1]) were 1.09 µM and 1.08 µM, respectively.
In the same order, the values of `Nc1ccc(-c2ccnc(N(CCCCCCC(=O)NO)c3ccccn3)c2)cc1` [Example 22, 7-{[4-(4-Amino-phenyl)-pyridin-2-yl]-pyridin-2-yl-amino}-heptanoic acid hydroxyamide] are 0.039 µM and 0.298 µM.
In the same order, the values of `CC(C)Oc1ccnc(N(CCCCCCC(=O)NO)c2ccccn2)c1` [Example 19, 7-[(4-Isopropoxy-pyridin-2-yl)-pyridin-2-yl-amino]heptanoic acid hydroxyamide] are 0.478 µM and 0.326 µM.
In the same order, the values of `CCOc1ccnc(N(CCCCCCC(=O)NO)c2ccccn2)c1` [Example 17, 7-[(4-Ethoxy-pyridin-2-yl)-pyridin-2-yl-amino]-heptanoic acid hydroxyamide] are 0.456 µM and 0.598 µM.
`CCCOc1ccnc(N(CCCCCCC(=O)NO)c2ccccn2)c1` [Example 18, 7-[(4-Propoxy-pyridin-2-yl)-pyridin-2-yl-amino]-heptanoic acid hydroxyamide]: the IC50 was found to be 0.574 µM in the assay with MCF7 Breast Tumour Cell and 0.822 µM in [1].
In the same order, the values of `Cc1ccc(-c2ccnc(N(CCCCCCC(=O)NO)c3ccccn3)c2)cc1` [Example 23, 7-[Pyridin-2-yl-(4-p-tolyl-pyridin-2-yl)-amino]-heptanoic acid hydroxyamide] are 0.077 µM and 1.06 µM.
For `O=C(CCCCCCN(c1ccccn1)c1cc2ccccc2cn1)NO` [Example 14, 7-(Isoquinolin-3-yl-pyridin-2-yl-amino)-heptanoic acid hydroxyamide], the half-maximal inhibitory concentration (IC50) is 0.306 µM on HDAC2; 0.002 µM on HDAC6; 0.145 µM at HDAC9; 0.169 µM with MCF7 Breast Tumour Cell; 0.337 µM in assay [1]; 0.064 µM against HDAC1.
In turn, `O=C(CCCCCCN(c1ccccn1)c1cc(-c2ccc(F)cc2)ccn1)NO` [Example 21, 7-{[4-(4-Fluoro-phenyl)-pyridin-2-yl]-pyridin-2-yl-amino}-heptanoic acid hydroxyamide] yielded an IC50 in [1] of 1.08 µM.
The compound `O=C(CCCCCCN(c1ccccn1)c1cc(-c2ccccc2F)ccn1)NO` [Example 26, 7-{[4-(2-Fluoro-phenyl)-pyridin-2-yl]-pyridin-2-yl-amino}-heptanoic acid hydroxyamide] displayed an IC50 in the assay on MCF7 Breast Tumour Cell of 0.2 µM.
As for `O=C(CCCCCCN(c1ccccn1)c1cc(-c2ccccc2Cl)ccn1)NO` [Example 25, 7-{[4-(2-Chloro-phenyl)-pyridin-2-yl]-pyridin-2-yl-amino}-heptanoic acid hydroxyamide], the IC50 is 0.21 µM in the assay with MCF7 Breast Tumour Cell and 1.08 µM in assay [1].
As for `O=C(CCCCCCN(c1cccnc1)c1ccccn1)NO` [Example 20, 7-(Pyridin-3-yl-pyridin-2-yl-amino)-heptanoic acid hydroxyamide], the midpoint of inhibition in assay [1], the IC50, lay at 0.539 µM.
Compound `O=C(CCCCCCC(c1ccccn1)c1ccccn1)NO` [Example 6] gave an IC50 with MCF7 Breast Tumour Cell of 0.445 µM.
In the case of `O=C(CCCCCN(c1ccccn1)c1ccccn1)NO` [Example 2, 6-(Dipyridin-2-ylamino)-N-hydroxyhexanamide], the half-inhibitory concentration (IC50) was determined as 2.34 µM with MCF7 Breast Tumour Cell and 2.49 µM in [1].
As for `O=C(CCCCC=C(c1ccccn1)c1ccccn1)NO` [Example 1, N-Hydroxy-7,7-di(pyridin-2-yl)hept-6-enamide], the IC50 was determined as 0.068 µM on HDAC6, 0.6 µM with MCF7 Breast Tumour Cell, 0.95 µM in [1] and 0.158 µM on HDAC1.
For `O=C(CCCCCCN(c1ccccn1)c1ccccn1)NO` [Example 3, 7-(Dipyridin-2-ylamino)-N-hydroxyheptanamide], the IC50 came out at 1.54 µM on HDAC2; 0.009 µM on HDAC6; 0.1 µM in the assay with TNFα; 0.245 µM in assay [1]; 0.71 µM on HDAC3; 0.307 µM on HDAC4.
In the case of `COc1ccc(N(CCCCCCC(=O)NO)c2ccccn2)nc1` [Example 11, N-Hydroxy-7-((5-methoxypyridin-2-yl)(pyridin-2-yl)amino)heptanamide], the IC50 stood at 0.883 µM against HDAC2; 0.013 µM on HDAC6; 0.759 µM on HDAC9; 0.292 µM in the assay on MCF7 Breast Tumour Cell; 0.406 µM in assay [1]; 0.182 µM against HDAC1.
For `O=C(CCCCCCN(c1ccccn1)c1cc(-c2ccccc2)ccn1)NO` [Example 8, N-Hydroxy-7-((4-phenylpyridin-2-yl)(pyridin-2-yl)amino)heptanamide], the concentration for half-maximal inhibition (IC50) against HDAC6 turned out to be 0.019 µM; in the assay on MCF7 Breast Tumour Cell, 1.05 µM; in assay [1] it was 0.493 µM; at HDAC1, 0.116 µM.
In the case of `O=C(CCCCCCN(c1ccccn1)c1cc(OCc2ccccc2)ccn1)NO` [Example 15, 7-[(4-Benzyloxy-pyridin-2-yl)-pyridin-2-yl-amino]-heptanoic acid hydroxyamide], the 50% inhibitory concentration (IC50) against HDAC2 is 0.612 µM; against HDAC6 it was 0.003 µM; against HDAC9, 0.423 µM; in the assay on MCF7 Breast Tumour Cell, 0.411 µM; in [1], 1.26 µM; against HDAC1, 0.151 µM.
On to `Cc1ccc(N(CCCCCCC(=O)NO)c2ccccn2)nc1` [Example 9, N-Hydroxy-7-((5-methylpyridin-2-yl)(pyridin-2-yl)amino)heptanamide], for which the IC50 was determined as 1.14 µM against HDAC2; 0.031 µM on HDAC6; 0.759 µM on HDAC9; 0.697 µM with MCF7 Breast Tumour Cell; 0.337 µM in assay [1]; 0.453 µM at HDAC1.
For the compound `O=C(CCCCCCN(c1ccccn1)c1ccc2ccccc2n1)NO` [Example 4, N-Hydroxy-7-(pyridin-2-yl(quinolin-2-yl)amino)heptanamide], the half-maximal inhibitory concentration (IC50) at HDAC2 turned out to be 0.212 µM; against HDAC6 it was 0.016 µM; against HDAC9, 0.09 µM; on HDAC10, 0.126 µM; against HDAC5, 0.123 µM; against HDAC11, 0.112 µM. The IC50 is 0.081 µM in [1]; 0.062 µM on HDAC3; 0.545 µM against HDAC4; 0.071 µM against HDAC1; 0.312 µM against HDAC8.
`Cc1ccccc1-c1ccnc(N(CCCCCCC(=O)NO)c2ccccn2)c1` [Example 24, 7-[Pyridin-2-yl-(4-o-tolyl-pyridin-2-yl)-amino]-heptanoic acid hydroxyamide]: the IC50 in the assay on MCF7 Breast Tumour Cell worked out at 0.2 µM; in assay [1], 1.62 µM.
